Reference: ChEMBL document CHEMBL1201862, “PubChem BioAssay data set” (2004)
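Values below derive from 48-hour exposures of cells grown in 96-well plates, with endpoints linearly interpolated between the two concentrations bracketing the appropriate inhibition level. GI50 is the concentration that inhibits growth by half.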 Calls of active or inactive are those of the source. No stated cut-off is given here; in the data, active = GI50 up to about 1.1 µM and inactive = higher.

Legend:
Assay in all cases: NCI-60 cell line screen, 48 h
SF-268 = test system: SF-268
UO-31 = test system: UO-31
SK-MEL-28 = test system: SK-MEL-28
UACC-62 = test system: UACC-62
OVCAR-5 = test system: OVCAR-5
A549 = test system: A549
EKVX = test system: EKVX
RXF 393 = test system: RXF 393
786-0 = test system: 786-0
NCI-H460 = test system: NCI-H460
CCRF-CEM = test system: CCRF-CEM
HL-60 = test system: HL-60
SNB-75 = test system: SNB-75
OVCAR-3 = test system: OVCAR-3
K562 = test system: K562
SR = test system: SR

Measured: GI50

O=C1CCC2(c3ccccc3)Nc3cc(Cl)ccc3N12 (stereo not drawn)
inactive: SF-268 40.8 µM | UO-31 25.5 µM | SK-MEL-28 36.2 µM | UACC-62 19 µM | OVCAR-5 58.9 µM | A549 31 µM | EKVX 33.3 µM | RXF 393 28.4 µM | 786-0 35.6 µM | NCI-H460 32.7 µM | CCRF-CEM 25.1 µM | HL-60 20.8 µM | SNB-75 16 µM | OVCAR-3 21.8 µM | K562 32 µM

CCOC(=O)C1C(=O)CC(=O)C2CCCCC21 (stereo not drawn)
inactive: SF-268 > 100 µM | UO-31 > 100 µM | SK-MEL-28 > 100 µM | UACC-62 > 100 µM | OVCAR-5 > 100 µM | A549 > 100 µM | EKVX > 100 µM | RXF 393 > 100 µM | 786-0 > 100 µM | NCI-H460 > 100 µM | CCRF-CEM > 100 µM | HL-60 > 100 µM | SNB-75 > 100 µM | OVCAR-3 > 100 µM | K562 > 100 µM

ON/N=C/c1cc2c(cc1Br)OCO2
inactive: SF-268 247 µM | SK-MEL-28 > 386 µM | UACC-62 > 386 µM | OVCAR-5 164 µM | A549 > 386 µM | EKVX 176 µM | RXF 393 114 µM | 786-0 > 386 µM | NCI-H460 > 386 µM | CCRF-CEM > 386 µM | SR > 386 µM | HL-60 > 386 µM | OVCAR-3 295 µM | K562 > 386 µM

O=C(N/C(=C\c1c(O)ccc2ccccc12)c1nc2ccccc2[nH]1)c1ccccc1
inactive: SF-268 64.3 µM | UO-31 42.6 µM | SK-MEL-28 > 100 µM | UACC-62 > 100 µM | OVCAR-5 > 100 µM | A549 > 100 µM | EKVX > 100 µM | RXF 393 22.1 µM | 786-0 39.8 µM | NCI-H460 > 100 µM | CCRF-CEM > 100 µM | SNB-75 18.8 µM | OVCAR-3 > 100 µM | K562 > 100 µM

CCn1c2c(c3ccccc31)C(c1ccccc1)CC1C(=O)N(c3ccccc3)C(=O)C21 (stereo not drawn)
inactive: SF-268 > 100 µM | UO-31 36.1 µM | SK-MEL-28 41.6 µM | UACC-62 38.9 µM | OVCAR-5 > 100 µM | A549 21.9 µM | EKVX 42.8 µM | 786-0 21 µM | NCI-H460 54.1 µM | CCRF-CEM > 100 µM | HL-60 68.9 µM | SNB-75 17.6 µM | OVCAR-3 > 100 µM | K562 89.5 µM

N#CC1(C#N)C=CC(=C2OCC3CCCN23)C=C1 (stereo not drawn)
inactive: SF-268 > 100 µM | UO-31 > 100 µM | UACC-62 > 100 µM | OVCAR-5 > 100 µM | A549 > 100 µM | RXF 393 > 100 µM | 786-0 > 100 µM | NCI-H460 > 100 µM | CCRF-CEM 77.1 µM | HL-60 87.5 µM | SNB-75 52.2 µM | K562 > 100 µM

C/C(CC(=O)Nc1cccc(Cl)c1C)=N\N=C(N)N
inactive: SF-268 > 100 µM | UO-31 > 100 µM | SK-MEL-28 > 100 µM | UACC-62 > 100 µM | OVCAR-5 > 100 µM | A549 > 100 µM | EKVX > 100 µM | RXF 393 > 100 µM | 786-0 > 100 µM | NCI-H460 > 100 µM | CCRF-CEM > 100 µM | HL-60 > 100 µM | SNB-75 > 100 µM | OVCAR-3 > 100 µM | K562 24.1 µM

CN(C(=O)C12C3C4C1C1C2C3C41C#N)C(C)(C)C (stereo not drawn)
inactive: SF-268 > 100 µM | UO-31 > 100 µM | SK-MEL-28 > 100 µM | UACC-62 > 100 µM | OVCAR-5 > 100 µM | A549 > 100 µM | EKVX > 100 µM | 786-0 > 100 µM | NCI-H460 > 100 µM | CCRF-CEM > 100 µM | HL-60 > 100 µM | SNB-75 69.2 µM | OVCAR-3 > 100 µM | K562 > 100 µM

COc1ccccc1/C=C1\C(=O)N(C(=O)c2ccc(NC(C)=O)cc2)N=C1C
inactive: SF-268 > 100 µM | UO-31 > 100 µM | SK-MEL-28 > 100 µM | OVCAR-5 > 100 µM | A549 > 100 µM | EKVX > 100 µM | 786-0 > 100 µM | NCI-H460 > 100 µM | CCRF-CEM > 100 µM | SR > 100 µM | HL-60 > 100 µM | SNB-75 > 100 µM | OVCAR-3 > 100 µM | K562 > 100 µM

CC12CC3CC(C)(C1)CC(N=[N+]=[N-])(C3)C2
inactive: SF-268 > 100 µM | UO-31 > 100 µM | SK-MEL-28 > 100 µM | UACC-62 > 100 µM | OVCAR-5 > 100 µM | A549 > 100 µM | EKVX > 100 µM | 786-0 > 100 µM | NCI-H460 > 100 µM | CCRF-CEM > 100 µM | SR > 100 µM | SNB-75 > 100 µM | OVCAR-3 > 100 µM | K562 > 100 µM

CC(C)(C)c1cc(CCCCCCCC2(CCCCCCCc3cc(C(C)(C)C)cc(C(C)(C)C)c3)OC(COCCOCCCCCC#N)C(COCCOCCCCCC#N)O2)cc(C(C)(C)C)c1 (stereo not drawn)
inactive: SF-268 > 100 µM | UO-31 > 100 µM | SK-MEL-28 > 100 µM | UACC-62 > 100 µM | OVCAR-5 > 100 µM | A549 > 100 µM | EKVX > 100 µM | RXF 393 3.78 µM | 786-0 > 100 µM | NCI-H460 > 100 µM | CCRF-CEM > 100 µM | HL-60 > 100 µM | SNB-75 > 100 µM | OVCAR-3 > 100 µM | K562 > 100 µM

Cc1cc(Br)cc(C)c1NC(=O)C(=O)C(C(=O)c1ccc(Cl)c(Cl)c1)C1OC(=O)c2ccccc21 (stereo not drawn)
inactive: SF-268 39.8 µM | UO-31 26.2 µM | UACC-62 59.8 µM | OVCAR-5 21.7 µM | A549 74.3 µM | EKVX 4.19 µM | RXF 393 > 100 µM | 786-0 86.1 µM | NCI-H460 > 100 µM | CCRF-CEM 35.2 µM | SR 7.71 µM | HL-60 24.5 µM | OVCAR-3 37.1 µM | K562 28.2 µM

C#CC1(O)CCC2[C@@H]3CCc4cc(Oc5nc(F)nc(-c6c7ccccc7c(SCC)n6CCC)n5)ccc4C3CC[C@@]21C (stereo partly drawn)
inactive: SF-268 57.5 µM | UO-31 33.3 µM | SK-MEL-28 50.7 µM | UACC-62 89.7 µM | OVCAR-5 > 100 µM | A549 > 100 µM | EKVX 59.6 µM | RXF 393 21.6 µM | 786-0 > 100 µM | NCI-H460 > 100 µM | CCRF-CEM 39.4 µM | SR 34.7 µM | HL-60 > 100 µM | OVCAR-3 > 100 µM | K562 51.4 µM

COc1cc(OC)c2c(=O)cc(-c3ccc(OC)c(OC)c3OC)oc2c1
inactive: SF-268 48.2 µM | SK-MEL-28 > 100 µM | UACC-62 > 100 µM | OVCAR-5 > 100 µM | A549 > 100 µM | EKVX > 100 µM | RXF 393 57.5 µM | 786-0 38.5 µM | CCRF-CEM > 10 µM | HL-60 > 100 µM | SNB-75 6.95 µM | OVCAR-3 > 100 µM | K562 > 100 µM
